Reference: US6656734B1, “Compositions for the delivery of polynucleotides to cells” (Transgene S.A., priority 1997, dated 2003)
Entries after “also recorded” stand apart in the source; their conditions may differ.

Assays:
pulmonary cells = experiment: Luciferase activity in lungs of mice after intratracheal injection of plasmid/polar compound compositions; format: in vivo; details: B6/SJLF1 mice
Procedure: The chosen polynucleotide, i.e. the plasmid pTG11033 (FIG. 1), encompasses the gene encoding luciferase placed under the control of the CMV promoter, intron 1 of the HMG gene and the SV40 polyA termination signal. The plasmid DNA contained in 250 μl of a 1 mg/ml solution of purified plasmid (purified by centrifugation in a cesium chloride gradient) is precipitated with ethanol. After having been centrifuged, washed with 70% ethanol and dried, the nucleic acid pellet is taken up in a given volume of DESO or DPSO and of 20 mM Hepes buffer, pH 7.5, in order to give the following compositions as shown in Table I below: The 8-week-old female mice (B6/SJLF1, Iffa Credo) were anaesthetized by means of intraperitoneal injection (physiological saline, […] 1000, xylazine/ROMPUN). […] Each composition is injected into at least three different mice. The expression levels are compared with those obtained after injecting 50 μg of DNA in 50 μl of 20 mM Hepes, pH 7.5, without any addition of polar compound. A control in which the mice are not injected is also included in the protocol. The mice are sacrificed two days after the injections. The lungs and the trachea are treated independently. The tissues are frozen in liquid nitrogen and stored at -80° C. In order to measure the luciferase activity, the tissues are ground up mechanically using a pestle in a mortar which is placed on dry ice. 500 μl or 200 μl of a lysis buffer (Promega) are added to the tissue fragments obtained from the lungs or the trachea, respectively, and the solution is subjected to three steps of freezing/thawing. The cell debris is removed by centrifugation and the luciferase activity (in RLU/min, relative light unit per minute) is measured on 20 μl of supernatant, in accordance with the supplier's (Promega) instructions, by adding 100 μl of reagent and measuring the activity by means of luminescence. The luciferase activity which is measured is standardized in relation to the quantity of protein with the aid of a standard scale which is generated using commercially available luciferase (Promega). […]

plasmid DNA (pTG11033) = experiment: Plasmid DNA melting curves; format: physicochemical; details: 50 μg/ml pTG11033 in 20 mM HEPES pH 7.5, 0-20% DPSO, 35-100° C., 260 nm; versus DNA alone
Procedure: Plasmid DNA melting curves were recorded on a thermostated UV/Visible CARY/VARIAN spectrophotometer (sofware version: 3.04) using 2 quartz cuvettes (L=1cm) with Teflon stopper.

airways cell = experiment: Theophylline pretreatment before airway delivery of a composition comprising DPSO; format: in vivo; details: oral 0.3 mg theophylline to mice about 30 min before composition comprising DPSO
Excerpt: Finally, the invention relates to a cell which is transfected with a composition as previously defined, in particular a prokaryotic cell, or a yeast or eukaryotic cell, in particular an animal cell, in particular a mammalian cell, more especially a cancerous cell. According to a preferred embodiment of the invention, the said cell is an airways cell, more especially a tracheal or pulmonary cell, advantageously a cell of the respiratory epithelium. In the case of airway delivery, prior administration of bronchodilator compounds (for example, theophylline) could be advantageous.

Row | SMILES | measured level of expression of the luciferase-encoding gene on increasing the percentage of the compound (pulmonary cells; 50 μg DNA, FIG. 4) | expression of the luciferase gene in the pulmonary tissues (pulmonary cells; 50 μg DNA/50 μl, 15% (v/v) polar compound, sacrificed two days after injection, compared with polynucleotide alone) | transfection of the pulmonary cells (luciferase expression) (pulmonary cells; 50 μg pTG11033/50 μl, 10 or 15% polar compound, compared with polynucleotide on its own) | Absorbance change upon DNA melting (plasmid DNA (pTG11033)) | temperature at which absorbance change (DNA melting) occurs (plasmid DNA (pTG11033)) | expression level compared with administration without pretreatment (airways cell)
1 | CCC[S+]([O-])CCC [DPSO, di-n-propyl sulphoxide] | improve the measured level of expression | increases expression; also recorded: markedly improved | best results | lowered | higher temperature | –
2 | Cn1c(=O)c2[nH]cnc2n(C)c1=O [theophylline] | – | – | – | – | – | slightly increase of the expression level
